Assays:
[1] = incubation of pranlukast with liver microsomes from dogs; assay type: in vitro ADME; settings: dog liver microsomes
[2] = incubation of pranlukast with human liver S9 from donor H51; assay type: in vitro ADME
Protocol: Samples from the human S9 incubations were received as a 1:1 mixture of incubation media and acetonitrile. In order to reduce the relative organic content to about 25%, the samples were diluted with an equal volume of water prior to HPLC/MS and HPLC/MS/MS analysis. Samples from the microsomal incubations were also received as a 1:1 mixture of incubation media and acetonitrile. The relative organic content was however reduced to about 25% by evaporation following the centrifugation step.
Retention times observed in the ion chromatograms for m/z 498 and 482 (pranlukast) correlate well with those in the radiochromatogram. […] Therefore, in the CID spectra of the two monohydroxylated metabolites and the parent compound, the precursor and fragment ions are all shifted by +2 amu due to the predominance of the [^14 C] label. The observed fragmentation patterns are identical to the standards and confirmed the presence of pranlukast, as well as two monohydroxylated metabolites.

[3] = human radiolabel study of pranlukast (recovery in feces, metabolites in feces and plasma); assay type: in vivo; settings: for plasma concentrations of metabolite in humans: human plasma, limited data from the single radiolabelled study
[4] = assays predictive of utility in treating asthma
[5] = incubation of pranlukast with liver microsomes from rats or mice; assay type: in vitro ADME; settings: rat or mouse liver microsomes; for metabolite formation from pranlukast: high concentrations of pranlukast (50 uM)
[6] = incubation with human liver microsomes; assay type: in vitro ADME; settings: human liver microsomes and NADPH
Protocol: From an evaluation of a battery of human liver microsomes, it was evident that some human livers have enhanced activity towards benzylic hydroxylation. It appears that benzylic and aryl hydroxylation are performed by different P450 enzymes but which enzyme(s) is currently not known.
Preparation of Formula (I) Using Human Hepatic Microsomes:
The incubations were performed with a final volume of 100 mL in a shaking water bath at a temperature of approximately 37° C. Each incubation contained approximately 400 ug/mL of microsomal protein (H51), 0.5 mL 2 mM pranlukast in a 16% w/v encapsin solution containing 1.5% w/v sodium bicarbonate. The incubation volume was adjusted to 75 mL with 50 mM potassium phosphate buffer (pH 7.4). Following a 5 minute pre-incubation at approximately 37° C., the reaction was initiated by the addition of 25 mL of pre-warmed cofactor solution (approximately 1.7 mg NADP, 7.8 mg glucose 6-phosphate and 6 units of glucose 6-phosphate dehydrogenase per mL of 2% (w/v) sodium hydrogen carbonate). […] The putative benzyl hydroxy metabolite was subsequently isolated and analysed as described below. […]
The incubation was performed with a final volume of […] in a shaking water bath at a temperature of approximately 37° C. […] The putative dihydroxymetabolite formed was subsequently analysed and isolated as described below.

SMILES	metabolite formation from pranlukast [1]	dependence of metabolite formation on NADPH [2]	metabolite formation from pranlukast [2]	sulfation in humans ([3]; human)	plasma concentrations of metabolite in humans [3]	plasma concentrations of metabolite in humans ([3]; listed as benzylhydroxy)	activity in assays predictive of utility in treating asthma and other diseases which can be treated by pranlukast [4]	metabolite formation from pranlukast [5]	presence of metabolite in human fecal samples ([3]; human feces)	metabolite generated in vitro from the 4-hydroxyphenyl pranlukast analog [6]	absorption ([3]; human)	route of metabolism in humans ([3]; human, benzylic hydroxylation)	dose excreted ([3]; human, feces, after pranlukast, read-out: administered radiolabel recovered in feces as the named species)	administered radiolabel recovered in feces ([3]; human, total radiolabel after pranlukast)	predominant metabolic pathway [5]
O=C(Nc1cccc2c(=O)cc(-c3nnn[nH]3)oc12)c1ccc(OCCCC(O)c2ccccc2)cc1 (centres unmarked) [Formula (I), 4-oxo-8-[4-(4-hydroxy-4-phenylbutoxy)benzoylamino]-2-tetrazol-5-yl-4H-1-benzopyran]	only very small amounts	dependent on the presence of NADPH	major metabolites	no evidence for sulfation	measurable plasma concentrations in humans	measurable in human plasma	active	detectable	–	–	–	–	–	–	–
O=C(Nc1cccc2c(=O)cc(-c3nnn[nH]3)oc12)c1ccc(OCCCC(O)c2ccc(O)cc2)cc1 (centres unmarked) [Formula (II), 4-oxo-8-[4-(4-hydroxy-4-(4-hydroxyphenyl)butoxy)benzoylarnino]-2-tetrazol-5-yl-4H-1-benzopyran]	form the arylhydroxy species	–	–	appears to be sulfated in humans	measurable in human plasma	–	active	detectable	found in human fecal samples	generated in vitro	–	–	–	–	–
O=C(Nc1cccc2c(=O)cc(-c3nnn[nH]3)oc12)c1ccc(OCCCCc2ccccc2)cc1 [pranlukast, reference compound]	–	–	–	–	–	–	–	–	–	–	poor absorption	major route of metabolism in humans	~84%	98.4%	hydrolysis of the amide bond in the center of the molecule is the predominant metabolic pathway

Reference: US5939447A, “Substituted benzopyrans” (SmithKline Beecham Corporation, priority 1998, dated 1999)
